Marks after values point to notes of the source that are not given here.
System: MIA-induced osteoarthritis pain
Test: MIA-induced osteoarthritis model, weight bearing difference (WBD) test
Type: in vivo
Settings: rat MIA
Source text: Osteoarthritis Pain: To assess the actions of a Compound of Formula (I) for the treatment or prevention of osteoarthritis pain, the rat monosodium iodo-acetate (MIA, i.e., sodium 2-iodoacetate) induced osteoarthritis model was used. Intra-articular injection of MIA causes joint degeneration characterized by osteolysis and swelling, with displacement of the patella, and reductions in bone mineral content and bone mineral density (Pomonis et al., “Development and pharmacological characterization of a rat model of osteoarthritis pain,” Pain 114: 339-346 (2005)). Under isoflurane anaesthesia, an intra-articular injection of 2 mg of MIA (Sigma-Aldrich) in 50 μl of saline was administered through the infrapatellar ligament of the knee joint of the right hind leg of the male, 6 week old Crl:CD(SD) rats. Control rats received an intra-articular injection of 50 μl of saline into the knee joint of the right hind leg. The left knee joint of all rats was untreated. […] Thus, in the assessment for osteoarthritis pain relief through gripping capability determinations, the 24 hour time point was the start of the next day when drug-in-vehicle was again orally administered (24 hours after the prior administration) for certain dosages. […] Weight Bearing Difference Test as an Assessment of Osteoarthritis Related Pain: The weight bearing difference test provides an accepted assessment of the efficacy of clinically useful analgesic drugs with respect of osteoarthritis related pain (see Pomonis et al. (2005)). WBD was assessed using a Linton Incapacitance Tester (Linton Instrumentation, Norfolk, UK). Rats were placed on the apparatus so that they were standing on their hind legs, and allowed to acclimate to the apparatus. When stationary, the weight born on each leg was measured over a 3s period. Three readings were taken for each rat at each time point; the average of the three readings was used for data analysis. WBD was expressed as “% WR”, i.e., the percentage of weight born on the MIA-injected right hind leg, using the following formula: [formula] where WR is the weight on the right hind leg and WL is the weight on the left (untreated) hind leg. […] The “% WRR”, i.e., the percentage reversal of the % WR impediment occurring post-MIA injection, was determined for each dosage at each time point using the following formula: [formula] where (% WR)Post-Drug is the % WR determined at each post-oral-administration time-point for each dose of each administered substance, (% WR)Pre-Drug is the % WR determined pre-oral-administration of each administered substance, and (% WR)Control Rat is the % WR determined for control rats (receiving the saline injection into the right hind leg knee joint). With the exception of the controls (i.e., celecoxib, vehicle) where the student's t-test was used, Dunnett's test was conducted for the % WRR.

`CC1CN(c2ncc(C(O)CO)cc2F)CCN1C(=O)Nc1nc2cc(F)ccc2s1.O=C(O)C=CC(=O)O` (stereo not shown) was tested, and the minimal effective dose was 1 mg/kg, the “% WRR [mean]” value (oral 0.3 mg/kg, 1 h after administration) was 4.3% and the “% WRR [mean]” value (oral 0.3 mg/kg, 3 h after administration) was 12.5%. For the same compound, the “% WRR [mean]” value (oral 0.3 mg/kg, 5 h after administration) was 7.1%, the “% WRR [mean]” value (oral 0.3 mg/kg, 7 h after administration) was 5.0% and the “% WRR [mean]” value (oral 0.3 mg/kg, 24 h after administration) was 0%. For the same compound, the “% WRR [mean]” value (oral 1 mg/kg, 1 h after administration) was 15.2%, the “% WRR [mean]” value (oral 1 mg/kg, 3 h after administration) was 28.8** % and the “% WRR [mean]” value (oral 1 mg/kg, 3 h after administration, listed as product prepared with Compound A155(a) and fumaric acid) was 28.8%. The “% WRR [mean]” value (oral 1 mg/kg, 5 h after administration) was 16.1** %, the “% WRR [mean]” value (oral 1 mg/kg, 5 h after administration, listed as product prepared with Compound A155(a) and fumaric acid) was 16.1% and the “% WRR [mean]” value (oral 1 mg/kg, 7 h after administration) was 8.8* %. For the same compound, the “% WRR [mean]” value (oral 1 mg/kg, 7 h after administration, listed as product prepared with Compound A155(a) and fumaric acid) was 8.8%, the “% WRR [mean]” value (oral 1 mg/kg, 24 h after administration) was 2.1% and the “% WRR [mean]” value (oral 3 mg/kg, 1 h after administration) was 20.9** %. For the same compound, the “% WRR [mean]” value (oral 3 mg/kg, 3 h after administration) was 34.5** %, the “% WRR [mean]” value (oral 3 mg/kg, 5 h after administration) was 23.4** % and the “% WRR [mean]” value (oral 3 mg/kg, 7 h after administration) was 9.5* %. For the same compound, the “% WRR [mean]” value (oral 3 mg/kg, 24 h after administration) was 3.7%, the “% WRR [mean]” value (oral 10 mg/kg, 1 h after administration) was 33.3** % and the “% WRR [mean]” value (oral 10 mg/kg, 3 h after administration) was 44.1** %. For the same compound, the “% WRR [mean]” value (oral 10 mg/kg, 5 h after administration) was 35.0** %, the “% WRR [mean]” value (oral 10 mg/kg, 7 h after administration) was 22.8** % and the “% WRR [mean]” value (oral 10 mg/kg, 24 h after administration) was 9.8%. For the same compound, the “% WRR [mean]” value (oral 20 mg/kg, 1 h after administration) was 41.9** %, the “% WRR [mean]” value (oral 20 mg/kg, 1 h after administration, listed as product prepared with Compound A155(a) and fumaric acid) was 41.9% and the “% WRR [mean]” value (oral 20 mg/kg, 3 h after administration) was 56.9** %. For the same compound, the “% WRR [mean]” value (oral 20 mg/kg, 3 h after administration, listed as product prepared with Compound A155(a) and fumaric acid) was 56.9%, the “% WRR [mean]” value (oral 20 mg/kg, 5 h after administration) was 46.9** % and the “% WRR [mean]” value (oral 20 mg/kg, 5 h after administration, listed as product prepared with Compound A155(a) and fumaric acid) was 46.9%. For the same compound, the “% WRR [mean]” value (oral 20 mg/kg, 7 h after administration) was 35.6** %, the “% WRR [mean]” value (oral 20 mg/kg, 7 h after administration, listed as product prepared with Compound A155(a) and fumaric acid) was 35.6% and the “% WRR [mean]” value (oral 20 mg/kg, 24 h after administration) was 19.8** %. The “% WRR [mean]” value (oral 20 mg/kg, 24 h after administration, listed as product prepared with Compound A155(a) and fumaric acid) was 19.8%.

Source: patent US9273043B2, “TRPV1 antagonists including dihydroxy substituent and uses thereof” (Purdue Pharma L.P., priority 2011, dated 2016)
